The target in the experiment is T1, TGF-beta receptor type-1 (Homo sapiens, UniProt P36897).
T1 sequence (P36897 whole entry): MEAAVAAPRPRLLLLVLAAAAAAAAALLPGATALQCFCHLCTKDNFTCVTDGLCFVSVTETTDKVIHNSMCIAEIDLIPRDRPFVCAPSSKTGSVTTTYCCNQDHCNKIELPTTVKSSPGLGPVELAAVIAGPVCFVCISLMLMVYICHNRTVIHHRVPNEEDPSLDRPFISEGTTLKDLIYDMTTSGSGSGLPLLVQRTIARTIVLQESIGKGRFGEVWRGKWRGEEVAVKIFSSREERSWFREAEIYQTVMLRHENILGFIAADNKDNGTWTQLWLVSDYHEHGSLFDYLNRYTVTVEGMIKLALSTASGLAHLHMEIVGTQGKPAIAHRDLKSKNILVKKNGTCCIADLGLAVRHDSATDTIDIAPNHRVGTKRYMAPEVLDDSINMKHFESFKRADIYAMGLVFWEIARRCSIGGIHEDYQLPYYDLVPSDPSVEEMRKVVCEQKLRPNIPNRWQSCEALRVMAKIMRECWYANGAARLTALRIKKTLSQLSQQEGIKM
Briefly: Enzyme Activity Inhibition: 1. Preparation of a 1× kinase buffer: 40 mM Tris (pH 7.5), 20 mM MgCl2, 0.10% BSA, 1 mM DTT.2. Compound preparation: The final detection concentration of the compound was 10 μM, which was prepared to a 100-fold concentration, i.e., 1 mM. 100 μL of the 100-fold compound was added in the second well of the 384-well plate, and 60 μL of 100% DMSO was added to the other wells. […] 50 nL of the compound was transferred to the reaction plate with echo.3. Kinase reaction: The kinase was added to a 1× kinase buffer to form a 2× enzyme solution. […] The polypeptide TGFbR1 (purchased from Signal Chem, catalog number T36-58) and ATP were added to a 1× kinase buffer to form a 2× substrate solution. The final concentration of the substrate solution was peptide TGFbR1 0.1 mg/mL, ATP 7 μM. 2.5 μL of the 2× enzyme solution was added to the 384-well reaction plate (there was already 50 nL of 100% DMSO dissolved compound), and a 1× kinase buffer was added to a negative control well. The reaction solution was incubated at room temperature for 10 minutes. 2.5 μL of 2× substrate solution was added to the 384-well reaction plate. The 384-well plate was covered and incubated at 30° C. for 1 hour. ADP-Glo reagent (purchased from Promege, catalog number v9102) was equilibrated to room temperature. 5 μL of ADP-Glo reagent was transferred to the reaction well of the 384-well plate to stop the reaction.4. Detection of reaction results: 10 μL of kinase detection reagent was transferred to each well, shaken for 1 minute, and let stand at room temperature for 30 minutes. The sample luminescence value was read at Synegy.
For the compound `CCOC(=O)c1cnc2ccc(/C=C\c3cccc(OC)n3)cn12`, the half-inhibitory concentration (IC50) (in general, the concentration at which inhibition is half-maximal) came out at 56 nM. That is a double-digit nanomolar value.
With `CNC(=O)/C(=C/c1cccc(C)n1)c1ccc2ncc(C(N)=O)n2c1` the figure was 207 nM; with `Cc1cccc(/C=C\c2ccc3ncc(-c4nnn[nH]4)n3c2)n1`, 21 nM; with `Cc1cccc(/C=C\c2ccc3ncc(C(=O)NCCN4CCOCC4)n3c2)n1`, 44 nM.
`Cc1csc(/C=C\c2ccc3ncc(C(N)=O)n3c2)n1` had a half-inhibitory concentration (IC50) of 33 nM. The IC50 values of the last two compounds are within 1.5-fold of each other.
To `Cc1cccc(/C=C(/C(=O)N2CCCCC2)c2ccc3ncc(C#N)n3c2)n1` belongs 4950 nM; to `Cc1cccc(/C=C\c2ccc3ncc(C#N)n3c2)n1`, 25 nM; to `Cc1ccc(F)c(/C=C\c2ccc3ncc(C(N)=O)n3c2)n1`, 8.5 nM.
With `Cc1cccc(/C=C(/C(N)=O)c2ccc3ncc(C(N)=O)n3c2)n1` the figure was 328 nM; with `Cc1cccc(/C=C/c2ccc3ncc(C(N)=O)n3c2)n1`, 372 nM.
`Cc1cccc(/C=C(/C(=O)N2CCCCC2)c2ccc3ncc(C(N)=O)n3c2)n1` had an IC50 of 58 nM.
With `COC(=O)/C(=C/c1cccc(C)n1)c1ccc2ncc(C(N)=O)n2c1` the figure was 7.4 nM.
To `COc1cccc(/C=C\c2ccc3ncc(C(N)=O)n3c2)n1` belongs 15 nM.
